Data on 25 compounds can be found in patent US20230339970A1, “CASEIN KINASE 1 DELTA MODULATORS” (priority 2020, published 2023).

Assay [1] addresses T1, human CSNK1D (Homo sapiens, UniProt P48730).
T1 construct: expressed in transfected cells
Nature of the assay: Whole Cell nBRET CSNK1D Binding Assay. The following applies: living CHO cells stably expressing human CSNK1D tagged with nanoluciferase; NanoBret tracer 130 nM; 2 hours at 37 C.

Assay [2] has as its target T2, human recombinant GST cleaved CSNK1D (Homo sapiens, UniProt P48730).
T2 construct: GST (cleaved yes); purchased University of Dundee clone DU 19064
Nature of the assay: Purified Enzyme Assay (ADP-Glo CSNK1D Kinase Assay). The assay is classed as biochemical. The following applies: 2 nM CSNK1D; peptide substrate 150 μM; ATP 20 μM; 45 minutes at room temperature. The method, boiled down: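 Percent activity derived from ADP-Glo quantification of ADP produced. Reactions: compound dose-response with human recombinant GST-cleaved CSNK1D, ATP and substrate peptide PLSRTL-pS-VASLPGL, incubated 45 min at room temperature.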

T2 sequence (P48730 whole entry): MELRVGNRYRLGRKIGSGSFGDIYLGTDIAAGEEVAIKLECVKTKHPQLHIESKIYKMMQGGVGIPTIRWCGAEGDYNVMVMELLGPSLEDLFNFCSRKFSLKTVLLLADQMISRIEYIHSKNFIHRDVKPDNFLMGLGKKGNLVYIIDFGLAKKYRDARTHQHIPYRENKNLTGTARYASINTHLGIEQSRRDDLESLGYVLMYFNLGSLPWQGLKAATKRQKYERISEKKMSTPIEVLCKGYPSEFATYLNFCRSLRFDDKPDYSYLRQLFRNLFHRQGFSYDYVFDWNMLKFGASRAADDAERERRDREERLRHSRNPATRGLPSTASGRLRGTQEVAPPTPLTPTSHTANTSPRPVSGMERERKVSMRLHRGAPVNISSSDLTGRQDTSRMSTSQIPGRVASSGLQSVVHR
T1 sequence (P48730 whole entry): as above

Regarding `Fc1ccc(-c2nn3c(c2-c2ccnc4[nH]ncc24)CC2(C3)CC2(F)F)nc1` (single isomer, unassigned) [Example 254, (*S)-1′1l′-Difluoro-2-(5-fluoro-2-pyridyl)-3-(1H-pyrazolo[3,4-b]pyridin-4-yl)spiro[4,6-dihydropyrrolo[1,2-b]pyrazole-5,2′-cyclopropane]], the values for the IC50 in assay [1] and in assay [2] were 85 nM and 4 nM, respectively.

Regarding `[2H]C([2H])([2H])OC([2H])([2H])[C@]1(F)CCc2c(-c3cc(C)nc4[nH]ncc34)c(-c3ccc(F)cn3)nn2C1` (single isomer, unassigned) [Example 312, (*S)-4-[6-[(Methoxy-d3)methyl-d2]-6-fluoro-2-(5-fluoro-2-pyridyl)-5,7-dihydro-4H-pyrazolo[1,5-a]pyridin-3-yl]-6-methyl-1H-pyrazolo[3,4-b]pyridine], the IC50 in assay [1] was 39 nM; in assay [2], 4 nM.

Take `Fc1ccc(-c2nn3c(c2-c2ccncc2)COCC3)nc1` [Example 74, 2-(5-Fluoro-2-pyridyl)-3-(4-pyridyl)-6,7-dihydro-4H-pyrazolo[5,1-c][1,4]oxazine]: the IC50 in assay [1] is 2410 nM; in assay [2] it was 205 nM.

`Cc1n[nH]c2nc(C(F)F)cc(-c3c(-c4ccc(F)cc4)nn4c3COC(C(F)(F)F)C4)c12` (single isomer, unassigned) [Example 374, (*S)-3-[6-(Difluoromethyl)-3-methyl-1H-pyrazolo[3,4-b]pyridin-4-yl]-2-(4-fluorophenyl)-6-(trifluoromethyl)-6,7-dihydro-4H-pyrazolo[5,1-c][1,4]oxazine]: the IC50 in assay [1] was over 10000 nM; in assay [2], 293 nM.

As for `Cc1cc(-c2c(-c3ccc(F)cn3)nn3c2C2CC2C3)c2cn[nH]c2n1` (racemic) [Example 24, 2-(5-Fluoropyridin-2-yl)-3-(6-methyl-1H-pyrazolo[3,4-b]pyridin-4-yl)-3b,4,4a,5-tetrahydrocyclopropa[3,4]pyrrolo[1,2-b]pyrazole], the IC50 in assay [1] is 55 nM; in assay [2], 4 nM.

As for `Cc1cc(-c2c(-c3ccc(F)cc3)nn3c2CC2(C3)CC2(F)F)c2cn[nH]c2n1` (single isomer, unassigned) [Example 253, (*R)-1′.1′-Difluoro-2-(4-fluorophenyl)-3-(6-methyl-1H-pyrazolo[3,4-b]pyridin-4-yl)spiro[4,6-dihydropyrrolo[1,2-b]pyrazole-5,2′-cyclopropane]], the IC50 in assay [1] stood at 279 nM; in assay [2] it was 21 nM.

Consider `Cc1cc(-c2c(-c3ccc(F)cc3)nn3c2CC(F)(F)CC3)c2cn[nH]c2n1` [Example 47, 4-(5,5-Difluoro-2-(4-fluorophenyl)-4,5,6,7-tetrahydropyrazolo[1,5-a]pyridin-3-yl)-6-methyl-1H-pyrazolo[3,4-b]pyridine], for which the IC50 in assay [1] came out at 79 nM; in assay [2], 11 nM.

`COc1ccc2nccc(-c3c(-c4ccc(F)cn4)nn4c3CC[C@@H]4C)c2n1` [Example 22, 8-[(6S)-2-(5-Fluoro-2-pyridyl)-6-methyl-5,6-dihydro-4H-pyrrolo[1,2-b]pyrazol-3-yl]-2-methoxy-1,5-naphthyridine]: the IC50 in assay [1] came out at 345 nM; in assay [2], 23 nM.

For the compound `C[C@H]1CCCc2c(-c3ccnc4[nH]ncc34)c(-c3ccc(F)cc3)nn21` (single isomer, unassigned) [Example 40, (*S)-4-[2-(4-Fluorophenyl)-7-methyl-4,5,6,7-tetrahydropyrazolo[1,5-a]pyridin-3-yl]-1H-pyrazolo[3,4-b]pyridine], the IC50 is 41 nM in assay [1] and 4 nM in assay [2].

For the compound `CC1COc2c(-c3ccn4nccc4c3)c(-c3ccc(F)cn3)nn2C1` (centres unmarked) [Example 443, 2-(5-Fluoropyridin-2-yl)-6-methyl-3-(pyrazolo[1,5-a]pyridin-5-yl)-6,7-dihydro-5H-pyrazolo[5,1-b][1,3]oxazine], the figures for the IC50 in assay [1] and in assay [2] were 581 nM and 30 nM, respectively.

As for `Fc1ccc(-c2nn3c(c2-c2ccnc4[nH]ncc24)[C@H]2CC[C@@H]3C2)cc1` (single isomer, unassigned) [Example 61], the IC50 in assay [1] is 21 nM; in assay [2], 5 nM.

Take `Fc1ccc(-c2nn3c(c2-c2c(F)cnc4[nH]ncc24)CCC3)nc1` [Example 221, 5-Fluoro-4-[2-(5-fluoro-2-pyridyl)-5,6-dihydro-4H-pyrrolo[1,2-b]pyrazol-3-yl]-1H-pyrazolo[3,4-b]pyridine]: the IC50 in assay [1] was found to be 460 nM; in assay [2], 7 nM.

With `Cc1cc(-c2c(-c3ccc(F)cn3)nn3c2C[C@H]2C[C@H]23)c2cn[nH]c2n1` [Example 27, (4aR,5aR)-2-(5-Fluoropyridin-2-yl)-3-(6-methyl-1H-pyrazolo[3,4-b]pyridin-4-yl)-4,4a,5,5a-tetrahydrocyclopropa[4,5]pyrrolo[1,2-b]pyrazole], the IC50 was 434 nM in assay [1] and 41 nM in assay [2].

For `[2H]C([2H])([2H])C1(C([2H])([2H])[2H])Cn2nc(-c3ccc(F)cn3)c(-c3c(F)c(C)nc4[nH]ncc34)c2CO1` [Example 406, 3-(5-Fluoro-6-methyl-1H-pyrazolo[3,4-b]pyridin-4-yl)-2-(5-fluoropyridin-2-yl)-6,6-bis(methyl-d3)-6,7-dihydro-4H-pyrazolo[5,1-c][1,4]oxazine], the results for the IC50 in assay [1] and in assay [2] were 23 nM and 3 nM, respectively.

As to `CC1(C)COc2c(-c3ccnc4[nH]ncc34)c(-c3ccc(F)cc3)nn2C1` [Example 212, 2-(4-Fluorophenyl)-6,6-dimethyl-3-(1H-pyrazolo[3,4-b]pyridin-4-yl)-6,7-dihydro-5H-pyrazolo[5,1-b][1,3]oxazine], the IC50 was 1 nM in assay [1] and under 0.5 nM in assay [2].

Consider `CC1(C(F)(F)F)Cn2nc(-c3ccc(F)cn3)c(-c3ccnc4[nH]ncc34)c2CO1` (centres unmarked) [Example 176, 2-(5-Fluoropyridin-2-yl)-6-methyl-3-(1H-pyrazolo[3,4-b]pyridin-4-yl)-6-(trifluoromethyl)-6,7-dihydro-4H-pyrazolo[5,1-c][1,4]oxazine], for which the half-inhibitory concentration (IC50) in assay [1] was found to be 198 nM; in assay [2] it was 7 nM.

In the case of `Cc1cc(-c2c(-c3ccc(F)cn3)nn3c2CC(C)(C)C3)c2cc[nH]c2n1` [Example 235, 4-[2-(5-Fluoro-2-pyridyl)-5,5-dimethyl-4,6-dihydropyrrolo[1,2-b]pyrazol-3-yl]-6-methyl-1H-pyrrolo[2,3-b]pyridine], the IC50 in assay [1] was 8 nM; in assay [2], 1 nM.

With `Cc1n[nH]c2nccc(-c3c(-c4ccc(F)cn4)nn4c3COC(C)(C)C4)c12` [Example 160, 2-(5-Fluoropyridin-2-yl)-6,6-dimethyl-3-(3-methyl-1H-pyrazolo[3,4-b]pyridin-4-yl)-6,7-dihydro-4H-pyrazolo[5,1-c][1,4]oxazine], the IC50 in assay [1] amounted to 143 nM; in assay [2] it was 9 nM.

Take `Cc1nc(-c2nn3c(c2-c2ccnc4[nH]ncc24)COC(C)(C)C3)ccc1Cl` [Example 163, 2-(5-Chloro-6-methylpyridin-2-yl)-6,6-dimethyl-3-(1H-pyrazolo[3,4-b]pyridin-4-yl)-6,7-dihydro-4H-pyrazolo[5,1-c][1,4]oxazine]: the IC50 in assay [1] is 1920 nM; in assay [2], 59 nM.

With `Fc1ccc(-c2nn3c(c2-c2ccnc4[nH]ncc24)C[C@@H]2C[C@@H]23)cc1` [Example 268, (4aS,5aS)-2-(4-Fluorophenyl)-3-(1H-pyrazolo[3,4-b]pyridin-4-yl)-4,4a,5,5a-tetrahydrocyclopropa[4,5]pyrrolo[1,2-b]pyrazole], the values for the IC50 in assay [1] and in assay [2] were 5 nM and 1 nM, respectively.

For the compound `[2H]C([2H])([2H])C1(C([2H])([2H])[2H])Cn2nc(-c3ccc(F)cn3)c(-c3cc(C)nc4[nH]nc(Cl)c34)c2CO1` [Example 405, 3-(3-Chloro-6-methyl-1H-pyrazolo[3,4-b]pyridin-4-yl)-2-(5-fluoropyridin-2-yl)-6,6-bis(methyl-d3)-6,7-dihydro-4H-pyrazolo[5,1-c][1,4]oxazine], the IC50 in assay [1] worked out at 14 nM; in assay [2] it was 5 nM.

As to `CC(=O)Nc1cc(-c2c(-c3ccc(F)cn3)nn3c2CC[C@@H]2[C@H]3C2(F)F)ccn1` (stereo in doubt) [Example 352, N-(4-((5a*R,6a*S)-6,6-Difluoro-2-(5-fluoropyridin-2-yl)-5,5a,6,6a-tetrahydro-4H-cyclopropa[e]pyrazolo[1,5-a]pyridin-3-yl)pyridin-2-yl)acetamide], the IC50 was 1300 nM in assay [1] and 50 nM in assay [2].

Take `CC1(C)COc2c(-c3ccnc4cn[nH]c34)c(-c3ccc(F)cc3)nn2C1` [Example 453, 2-(4-Fluorophenyl)-6,6-dimethyl-3-(1H-pyrazolo[4,3-b]pyridin-7-yl)-5,7-dihydropyrazolo[5,1-b][1,3]oxazine]: the results for the IC50 in assay [1] and in assay [2] were 11 nM and 2 nM, respectively.

In the case of `Fc1ccc(-c2nn3c(c2-c2ccnc4[nH]ncc24)CC[C@@H]2[C@H]3C2(F)F)cc1` (stereo in doubt) [Example 356, (5a*R,6a*S-6,6-Difluoro-2-(4-fluorophenyl)-3-(1H-pyrazolo[3,4-b]pyridin-4-yl)-5,5a,6,6a-tetrahydro-4H-cyclopropa[e]pyrazolo[1,5-a]pyridine], the IC50 is 2 nM in assay [1] and 1 nM in assay [2].

Regarding `CC1(C)CCc2c(-c3ccnc4[nH]ncc34)c(-c3ccc(F)cn3)nn2C1` [Example 49, 4-[2-(5-Fluoro-2-pyridyl)-6,6-dimethyl-5,7-dihydro-4H-pyrazolo[1,5-a]pyridin-3-yl]-1H-pyrazolo[3,4-b]pyridine], the IC50 in assay [1] amounted to 11 nM; in assay [2], 1 nM.
